Experimental findings from ChEMBL document CHEMBL2074343 (Pharm Res, 2004) are described below.

What all share (format): functional, cell-based
The target of data set [1] is T1, ATP-dependent translocase ABCB1 (Homo sapiens, UniProt P08183). Put plainly: TP_TRANSPORTER: transepithelial transport in L-MDR1 cells. To be noted: pig.
Data set [2] concerns the target T1, ATP-dependent translocase ABCB1. Put plainly: TP_TRANSPORTER: transepithelial transport of vinblastine in the presence of Atrovastatin at 50uM in KBV1 cells. To be noted: kbv1, 50 µM.
For data set [3] the target is unchanged. The experiment in a line: TP_TRANSPORTER: transepithelial transport of vinblastine in the presence of Simvastatin acid at 50uM in L-MDR1 cells. To be noted: pig, l-mdr1, 50 µM.

T1 sequence (P08183 whole entry): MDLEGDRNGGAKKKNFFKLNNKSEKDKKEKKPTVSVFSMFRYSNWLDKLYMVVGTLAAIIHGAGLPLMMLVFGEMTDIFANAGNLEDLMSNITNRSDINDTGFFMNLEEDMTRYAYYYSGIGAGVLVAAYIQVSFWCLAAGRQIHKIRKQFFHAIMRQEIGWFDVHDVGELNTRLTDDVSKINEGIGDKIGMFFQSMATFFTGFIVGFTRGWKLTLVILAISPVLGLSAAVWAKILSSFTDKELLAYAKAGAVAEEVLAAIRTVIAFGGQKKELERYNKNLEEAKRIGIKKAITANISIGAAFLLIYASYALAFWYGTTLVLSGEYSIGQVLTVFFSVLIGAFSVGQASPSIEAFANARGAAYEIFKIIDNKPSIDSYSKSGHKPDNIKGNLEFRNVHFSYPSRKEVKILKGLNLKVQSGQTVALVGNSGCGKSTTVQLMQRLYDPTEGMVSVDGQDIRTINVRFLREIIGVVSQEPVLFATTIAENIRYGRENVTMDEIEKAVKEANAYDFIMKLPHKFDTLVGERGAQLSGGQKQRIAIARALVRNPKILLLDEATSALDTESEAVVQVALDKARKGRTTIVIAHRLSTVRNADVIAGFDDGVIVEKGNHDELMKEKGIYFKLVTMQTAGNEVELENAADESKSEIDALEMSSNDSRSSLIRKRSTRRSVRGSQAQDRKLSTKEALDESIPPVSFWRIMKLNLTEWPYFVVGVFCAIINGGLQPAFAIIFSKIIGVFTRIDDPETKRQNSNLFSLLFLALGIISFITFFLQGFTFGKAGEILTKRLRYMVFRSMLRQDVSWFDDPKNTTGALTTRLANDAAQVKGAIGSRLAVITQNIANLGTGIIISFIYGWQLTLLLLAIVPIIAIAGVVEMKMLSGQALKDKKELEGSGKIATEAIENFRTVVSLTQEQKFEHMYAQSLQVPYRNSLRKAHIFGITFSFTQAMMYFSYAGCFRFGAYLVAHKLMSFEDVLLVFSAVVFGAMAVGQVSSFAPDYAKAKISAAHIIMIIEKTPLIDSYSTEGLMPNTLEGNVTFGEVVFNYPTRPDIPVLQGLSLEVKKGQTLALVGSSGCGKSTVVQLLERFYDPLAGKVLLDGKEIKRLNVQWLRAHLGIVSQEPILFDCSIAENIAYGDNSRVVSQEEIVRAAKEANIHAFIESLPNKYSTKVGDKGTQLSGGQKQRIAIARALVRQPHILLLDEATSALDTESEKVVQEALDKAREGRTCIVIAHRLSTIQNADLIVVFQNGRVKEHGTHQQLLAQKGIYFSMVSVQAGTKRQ

For the compound `CC(C)c1c(C(=O)Nc2ccccc2)c(-c2ccccc2)c(-c2ccc(F)cc2)n1CC[C@@H](O)C[C@@H](O)CC(=O)O` [ATORVASTATIN], the values for the Activity entry in data set [1] and in data set [2] were “substrate [+]” and “is not an inhibitor [-]”, respectively.
In the case of `CCC(C)(C)C(=O)O[C@H]1C[C@@H](C)C=C2C=C[C@H](C)[C@H](CC[C@@H](O)C[C@@H](O)CC(=O)O)[C@H]21` [TENIVASTATIN], the values for the Activity entry in data set [1] and in data set [3] were “substrate [+]” and “is not an inhibitor [-]”, respectively.
